Results: patent US20070148660A1, “Treatment of maladaptive substance use with H-ras antagonists” (The Regents of the University of California, priority 2005, published 2007)

How the values were obtained:
Ras = Ras activity assay (Raf-1-Ras binding domain GST-agarose), hippocampal slices; format: cell-based, mouse
Procedure: The treated hippocampal homogenates (250 μg) were incubated with […] of Raf-1-Ras binding domain GST-agarose for 45 min at 4° C. while rotating, as per manufacturer's instructions. […] Results were quantified by NIH Image 1.61.

NMDAR = assay: NMDAR-mediated EPSCs, whole-cell voltage clamp, hippocampal CA1; format: cell-based, mouse; conditions: for effect on the ethanol-induced inhibition of NMDAR-mediated EPSCs: inhibitor applied before ethanol, hippocampal slices
Procedure: Electrophysiological recordings were performed in C57BL/6J mice ranging from P21 to P26. Briefly, mice were anesthetized with halothane and decapitated as per University of California, San Francisco animal care guidelines. Horizontal sections of the hippocampus ([…]) were prepared with a vibratome (Leica, Nussloch, Germany). Slices were placed in a holding chamber and allowed to recover for at least 1 hr before being placed in the recording chamber and superfused with aCSF saturated with 95% O2/5% CO2 and containing (in mM): 119 NaCl, 1.6 KCl, 1.0 NaH2PO4, 1.3 MgCl2 (for EPSCs) or 0.01 MgCl2 (for field excitatory postsynaptic potentials (fEPSPs)), 2.5 CaCl2, 26.2 NaHCO3 and 11 glucose. Picrotoxin (100 μM) was added to block gamma-aminobutyric acid-A (GABAA) receptor-mediated inhibitory synaptic transmission, and CNQX (for EPSCs) or NBQX (for fEPSPs) (10 μM) was added to block α-amino-3-hydroxy-5-methyl-4-isoxalepropionate (AMPA)/Kainate receptors. Cells were visualized using infrared differential interference contrast video microscopy.
Whole-cell voltage clamp-recordings were made using an Axopatch ID or a MultiClamp 700A amplifier (Axon Instruments, Union City, Calif.). Electrodes (3.5-5.0 MΩ) contained (in mM): 120 Cesium methansulfonate, 20 HEPES, 0.4 EGTA, 2.8 NaCl, 5 TEA-Cl, 2.5 MgATP, and 0.25 NaGTP (pH 7.2-7.3), buffer at 270-285 mOsm. Series resistance (10-30 MΩ) and input resistance were monitored on-line with a 4 mV depolarizing step (50 ms) given just after every afferent stimulus. Recordings from the CA1 region of the hippocampus were obtained with a bipolar stimulating electrode that was placed 100-300 μm rostral to the recording electrode and was used to stimulate excitatory afferents at 0.1 Hz. Neurons were voltage-clamped at +40 mV to evoke NMDAR-mediated EPSCs. At this potential, NMDARs have a maximal open probability and the Mg^2+ block is removed. EPSCs were filtered at 2 kHz, digitized at 5-10 kHz and collected on-line using Igor Pro software (Wavemetrics, Lake Oswego, Oreg.) or pClamp 9 (Axon Instruments, Union City, Calif.). NMDAR example traces were constructed by averaging 20 EPSCs (200 sec) elicited at +40 mV during baseline, ethanol application, drug application or drug application with ethanol. To calculate the decay time (τ), Igor Pro software was used to fit exponential decay curves to averaged NMDAR-mediated EPSCs using the formula: y=A1exp(−invTau1*x)+A2exp(−invTau2X).

[1] = target: Raf-1-Ras binding domain GST agarose (UniProt P04049); assay: pull-down of hippocampal homogenates with Raf-1-Ras binding domain GST-agarose, Western blot with pan anti-Ras; ratio of Ras-GTP over total Ras, normalized to the control

## [Cl-].[K+] [KCl]
Ras; 50 mM KCl, 5 min, hippocampal slices
  Ras activity: increases Ras activity

## C[C@H](NC(c1cccc2[nH]c(=O)c(=O)[nH]c12)P(=O)(O)O)c1ccc(Br)cc1 (some centres unmarked) [NVP-AAM077, reference compound]
NMDAR; NVP-AAM077 0.4 μM, n=6
  decrease of NMDAR EPSCs: 55±4%
NMDAR; NVP-AAM077 application, data not shown
  NMDAR-mediated EPSCs in slices first treated with ethanol and ifenprodil: no effect
NMDAR; in the presence of NVP-AM077 (0.4 μM), n=6, baseline 43.0±2.1 ms
  weighted decay time: 68.7 ± 9.4 ms
NMDAR
  effect on the ethanol-induced inhibition of NMDAR-mediated EPSCs: occluded

## CC(C(O)c1ccc(O)cc1)N1CCC(Cc2ccccc2)CC1 (centres unmarked) [ifenprodil, reference compound]
NMDAR; ifenprodil 3 μM, n=5
  decrease of NMDAR EPSCs: 37+5%
NMDAR; ifenprodil application, data not shown
  NMDAR-mediated EPSCs in slices treated with both ethanol and NVP-AAM077: further inhibition
NMDAR; in the presence of ifenprodil (3 μM), n=7, baseline 41.2±3.4 ms
  weighted decay time: 34.7 ± 4.5 ms
NMDAR
  effect on the ethanol-induced inhibition of NMDAR-mediated EPSCs: did not

## GTP-bound active Ras, endogenous in mouse hippocampal slices (from UniProt Q61411 1-186)
[1]
  fold increase of Ras-GTP pulled down, ethanol-treated over control slices: 2 fold

## Tat-peptide: Tat-peptide (YGRKKRRQRRR: SEQ ID NO:2) synthesized by Syn Pep, used as a control
Ras; pre-incubation 2 hrs (Tat-H-Ras DN printed 2 mM, Tat-peptide 2 μM), then 100 mM ethanol 15 min
  effect on ethanol-mediated increase in endogenous Ras activity: did not
